# Measured values from patent US7951232B2, “Surface coating compositions and methods” (Elevance Renewable Sciences, Inc., priority 2006, dated 2011).
# What was measured:
# [1] = tested on: Pseudomonas aeroginosa, ATCC 15442; assay: Time-Kill Procedure (ASTM), rate of kill; assay type: cell-based, Pseudomonas aeruginosa
# Description: (§1) The rate of kill for these organisms upon exposure to 9-decenoic acid was determined using the American Society for Testing and Materials (ASTM) procedure entitled “Standard Test Method for the Assessment of Microbiocidal Activity of Test Materials Using a Time-Kill Procedure”, October 1998. This procedure incorporates the recommendations described in the “Manual of Clinical Microbiology,”5th ed., edited by A. B. Balows et al., ASM, Washington, and is directed by the Federal Register, June 1994.
# (§2) Stock cultures were transferred into TSB and incubated for 18-24 hours at 37±2° C. A second transfer was made onto TSA plates and were incubated for 18-24 hours at 37±2° C. The plates were removed from incubation and the bacterial growth washed from the agar surface using Butterfield's Phosphate Buffered Dilution Water (PBDW). The bacterial suspension was adjusted to contain approximately 10^8 Colony Forming Units (CFU)/ml with PBDW using spectrophometric methods extant in the laboratory.
# (§3) The concentrated 9-decenoic acid was diluted 1:40 in filter sterilized isopropanol to yield a 2.5% stock solution. Subsequent dilutions to the 9-decenoic acid stock solutions were made with sterile Deionized Water (DI) to achieve concentrations of 0.1%, 0.05%, 0.01%, and 0.001%. The pH was determined for each dilution; pH values ranged from 4.4-4.1. Additionally, the 9-decenoic acid stock solution was adjusted to pH 7 with 1 N NaOH and serially diluted with sterile DI to achieve concentrations of 1.0%, 0.75% and 0.5%.
# (§4) Compliant with the ASTM procedure cited, for each challenge microorganism a 9.9 ml aliquot of the prepared 9-decenoic acid suspension was added to a sterile tube. A 0.1 ml aliquot of the standardized inoculum was added to the 9-decenoic acid solution representing the start of the test exposure. The inoculated 9-decenoic acid solution was immediately mixed thoroughly. The inoculated suspension was held at room temperature for 0.5, 2, 5, 7 and 10 minute exposure times for tests run at ˜pH 4. The pH 7 tests were held at room temperature for 0.5 and 2 minutes.
# (§5) At each exposure sample time, a 1.0 ml aliquot of the inoculated 9-decenoic acid suspension was transferred to 9.0 ml of D/E Neutralizing Broth. Additional ten-fold serial dilutions were made in PBDW and plated in duplicate on TSA. All plates were incubated for 48 hours at 37±2° C. and visually examined for growth. The plates are enumerated, recorded and log kill determined for each time point.
# (§6) The following study controls were conducted: culture purity, neutralizer sterility, initial suspension population, test population, neutralization verification and a negative control using isopropanol. Culture purity was verified by performing a streak plate for isolated colonies on the each culture used. All cultures were determined to be pure based on consistent colony morphology typical for the test organism. The neutralizer sterility was confirmed by no growth in an incubated sample.
# (§7) The population of the initial and test culture were determined by serial dilution, plating and enumerating after incubation. The initial suspension were determined to be ≧10^4 CFU/ml. The test culture population was used for calculation of the log reduction achieved at each time point.
# (§8) Neutralization effectiveness was verified by a filtration test. For each organism, four tubes were prepared with 9 ml D/E Neutralizing Broth and fewer than 100 CFU/ml of the organism. A 1.0 ml aliquot of prepared 9-decenoic acid was added to each tube. Immediately, the entire contents of 2 tubes were filtered through a filtration apparatus and rinsed with sterile diluent. The remaining 2 tubes were held at room temperature for 30 minutes and then the entire contents were filtered using the same procedure. The filters were aseptically transferred to TSA plates and incubated for 48 hours at 37±2° C. and visually examined for growth.
# (§9) This control was inoculated, subcultured and incubated as in the test procedure.
# [2] = tested on: Escherichia coli, ATCC 11229; assay: Time-Kill Procedure (ASTM) at pH 7; assay type: cell-based
# Description: as §1, §2, §3, §4, §5, §6, §7, §8, §9
structure (smiles),measurement,setting,value
C=CCCCCCCCC(=O)O [9-decenoic acid],Log reduction of organisms after exposure,"[1]; 0.01%, pH 4.4, exposure 0.5 minutes",>6.1 log
same,Log reduction of organisms after exposure,"[1]; 0.01%, pH 4.4, exposure 2 minutes",>6.1 log
same,Log reduction of organisms after exposure,"[1]; 0.01%, pH 4.4, exposure 5 minutes",>6.1 log
same,Log reduction of organisms after exposure,"[1]; 0.01%, pH 4.4, exposure 7 minutes",>6.1 log
same,Log reduction of organisms after exposure,"[1]; 0.01%, pH 4.4, exposure 10 minutes",>6.1 log
same,Log reduction of organisms after exposure,"[1]; 0.05%, pH 4.1, exposure 0.5 minutes",>6.1 log
same,Log reduction of organisms after exposure,"[1]; 0.05%, pH 4.1, exposure 2 minutes",>6.1 log
same,Log reduction of organisms after exposure,"[1]; 0.05%, pH 4.1, exposure 5 minutes",>6.1 log
same,Log reduction of organisms after exposure,"[1]; 0.05%, pH 4.1, exposure 7 minutes",>6.1 log
same,Log reduction of organisms after exposure,"[1]; 0.05%, pH 4.1, exposure 10 minutes",>6.1 log
same,Log reduction of organisms after exposure,"[1]; 0.1%, pH 4.1, exposure 0.5 minutes",>6.1 log
same,Log reduction of organisms after exposure,"[1]; 0.1%, pH 4.1, exposure 2 minutes",>6.1 log
same,Log reduction of organisms after exposure,"[1]; 0.1%, pH 4.1, exposure 5 minutes",>6.1 log
same,Log reduction of organisms after exposure,"[1]; 0.1%, pH 4.1, exposure 7 minutes",>6.1 log
same,Log reduction of organisms after exposure,"[1]; 0.1%, pH 4.1, exposure 10 minutes",>6.1 log
same,Log reduction after exposure at pH 7,"[2]; 0.5%, pH 7, exposure 0.5 minutes",0 log
same,Log reduction after exposure at pH 7,"[2]; 0.5%, pH 7, exposure 2 minutes",0 log
same,Log reduction after exposure at pH 7,"[2]; 0.75%, pH 7, exposure 0.5 minutes",0.83 log
same,Log reduction after exposure at pH 7,"[2]; 0.75%, pH 7, exposure 2 minutes",>4.2 log
same,Log reduction after exposure at pH 7,"[2]; 1.0%, pH 7, exposure 0.5 minutes",>4.2 log
same,Log reduction after exposure at pH 7,"[2]; 1.0%, pH 7, exposure 2 minutes",>4.2 log
